Experimental data: patent US11959086B2, “Dual transit peptides for targeting polypeptides” (BASF AGRO B.V., priority 2016, dated 2024)

Assays:
Assay in all cases: Herbicide injury evaluation of Arabidopsis plants, greenhouse
Assay type in all cases: in vivo
[1] = system: Wildtype/non-transgenic Arabidopsis thaliana; conditions: scale 0-100
[2] = system: transgenic Arabidopsis thaliana, transgene SEQ ID NO 117; conditions: Table 3, scale 0-100
[3] = system: transgenic Arabidopsis thaliana, transgene SEQ ID NO 118; conditions: scale 0-100
[4] = system: transgenic Arabidopsis thaliana, transgene SEQ ID NO 121; conditions: Table 3, scale 0-100
[5] = system: transgenic Arabidopsis thaliana, transgene SEQ ID NO 128; conditions: Table 3, scale 0-100
[6] = system: transgenic Arabidopsis thaliana, transgene SEQ ID NO 120; conditions: Table 4, scale 0-100

With `C#CCN1C(=O)COc2cc(F)c(N3C(=O)C4=C(CCCC4)C3=O)cc21` [Flumioxazin, flumioxazin] the “Herbicide injury evaluation 14 days after herbicide treatment” value (shortened to “Herbicide injury evaluation 14 days”) ([1]; Table 3, 140 g ai/ha + 1% MSO) was 100, the “Herbicide injury evaluation 14 days” value ([1]; Table 3, 280 g ai/ha + 1% MSO) was 100 and the “Herbicide injury evaluation 14 days” value ([1]; Table 3, 420 g ai/ha + 1% MSO) was 100. For the same compound, the “Herbicide injury evaluation 14 days” value ([1]; Table 4, 140 g ai/ha + 1% MSO) was 100, the “Herbicide injury evaluation 14 days” value ([1]; Table 4, 280 g ai/ha + 1% MSO) was 100 and the “Herbicide injury evaluation 14 days” value ([1]; Table 4, 420 g ai/ha + 1% MSO) was 100. For the same compound, the “Herbicide injury evaluation 14 days” value ([2]; SEQ ID NO 117 C, 140 g ai/ha + 1% MSO) was 94, the “Herbicide injury evaluation 14 days” value ([2]; SEQ ID NO 117 C, 280 g ai/ha + 1% MSO) was 95 and the “Herbicide injury evaluation 14 days” value ([2]; SEQ ID NO 117 C, 420 g ai/ha + 1% MSO) was 95. For the same compound, the “Herbicide injury evaluation 14 days” value ([2]; SEQ ID NO 117 I, 140 g ai/ha + 1% MSO) was 90, the “Herbicide injury evaluation 14 days” value ([2]; SEQ ID NO 117 I, 280 g ai/ha + 1% MSO) was 94 and the “Herbicide injury evaluation 14 days” value ([2]; SEQ ID NO 117 I, 420 g ai/ha + 1% MSO) was 97. For the same compound, the “Herbicide injury evaluation 14 days” value ([3]; Table 3, SEQ ID NO 118 Q, 140 g ai/ha + 1% MSO) was 48, the “Herbicide injury evaluation 14 days” value ([3]; Table 3, SEQ ID NO 118 Q, 280 g ai/ha + 1% MSO) was 60 and the “Herbicide injury evaluation 14 days” value ([3]; Table 3, SEQ ID NO 118 Q, 420 g ai/ha + 1% MSO) was 60. For the same compound, the “Herbicide injury evaluation 14 days” value ([3]; Table 3, SEQ ID NO 118 R, 140 g ai/ha + 1% MSO) was 23, the “Herbicide injury evaluation 14 days” value ([3]; Table 3, SEQ ID NO 118 R, 280 g ai/ha + 1% MSO) was 28 and the “Herbicide injury evaluation 14 days” value ([3]; Table 3, SEQ ID NO 118 R, 420 g ai/ha + 1% MSO) was 28. The “Herbicide injury evaluation 14 days” value ([3]; Table 4, SEQ ID NO 118 Q, 140 g ai/ha + 1% MSO) was 60, the “Herbicide injury evaluation 14 days” value ([3]; Table 4, SEQ ID NO 118 Q, 280 g ai/ha + 1% MSO) was 65 and the “Herbicide injury evaluation 14 days” value ([3]; Table 4, SEQ ID NO 118 Q, 420 g ai/ha + 1% MSO) was 70. The “Herbicide injury evaluation 14 days” value ([3]; Table 4, SEQ ID NO 118 R, 140 g ai/ha + 1% MSO) was 63, the “Herbicide injury evaluation 14 days” value ([3]; Table 4, SEQ ID NO 118 R, 280 g ai/ha + 1% MSO) was 60 and the “Herbicide injury evaluation 14 days” value ([3]; Table 4, SEQ ID NO 118 R, 420 g ai/ha + 1% MSO) was 35. For the same compound, the “Herbicide injury evaluation 14 days” value ([4]; SEQ ID NO 121 G, 140 g ai/ha + 1% MSO) was 100, the “Herbicide injury evaluation 14 days” value ([4]; SEQ ID NO 121 G, 280 g ai/ha + 1% MSO) was 100 and the “Herbicide injury evaluation 14 days” value ([4]; SEQ ID NO 121 G, 420 g ai/ha + 1% MSO) was 100. For the same compound, the “Herbicide injury evaluation 14 days” value ([4]; SEQ ID NO 121 H, 140 g ai/ha + 1% MSO) was 100, the “Herbicide injury evaluation 14 days” value ([4]; SEQ ID NO 121 H, 280 g ai/ha + 1% MSO) was 100 and the “Herbicide injury evaluation 14 days” value ([4]; SEQ ID NO 121 H, 420 g ai/ha + 1% MSO) was 100. For the same compound, the “Herbicide injury evaluation 14 days” value ([5]; SEQ ID NO 128 D, 140 g ai/ha + 1% MSO) was 100, the “Herbicide injury evaluation 14 days” value ([5]; SEQ ID NO 128 D, 280 g ai/ha + 1% MSO) was 94 and the “Herbicide injury evaluation 14 days” value ([5]; SEQ ID NO 128 D, 420 g ai/ha + 1% MSO) was 93. The “Herbicide injury evaluation 14 days” value ([5]; SEQ ID NO 128 E, 140 g ai/ha + 1% MSO) was 93, the “Herbicide injury evaluation 14 days” value ([5]; SEQ ID NO 128 E, 280 g ai/ha + 1% MSO) was 99 and the “Herbicide injury evaluation 14 days” value ([5]; SEQ ID NO 128 E, 420 g ai/ha + 1% MSO) was 100. For the same compound, the “Herbicide injury evaluation 14 days” value ([6]; SEQ ID NO 120 J, 140 g ai/ha + 1% MSO) was 95, the “Herbicide injury evaluation 14 days” value ([6]; SEQ ID NO 120 J, 280 g ai/ha + 1% MSO) was 85 and the “Herbicide injury evaluation 14 days” value ([6]; SEQ ID NO 120 J, 420 g ai/ha + 1% MSO) was 95. The “Herbicide injury evaluation 14 days” value ([6]; SEQ ID NO 120 M, 140 g ai/ha + 1% MSO) was 75, the “Herbicide injury evaluation 14 days” value ([6]; SEQ ID NO 120 M, 280 g ai/ha + 1% MSO) was 98 and the “Herbicide injury evaluation 14 days” value ([6]; SEQ ID NO 120 M, 420 g ai/ha + 1% MSO) was 98.
